Results published in ChEMBL document CHEMBL1909046, “DrugMatrix in vitro pharmacology data”.

Columns and labels:
[1] = target: 5-hydroxytryptamine receptor 6 (Homo sapiens, UniProt P50406); assay type: cell membranes, HeLa, Membrane; further: in other assays of this panel Not Active means under 50% inhibition at 10 µM
Thromboxane-A synthase = target: T1, Thromboxane-A synthase (Homo sapiens, UniProt P24557); test: biochemical; assay type: tissue-based, Platelet;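 further: enzyme inhibition assay with PGH2 supplied as substrate; in other assays of this panel Not Active means under 50% inhibition at 10 µM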
T1 sequence (P24557 whole entry): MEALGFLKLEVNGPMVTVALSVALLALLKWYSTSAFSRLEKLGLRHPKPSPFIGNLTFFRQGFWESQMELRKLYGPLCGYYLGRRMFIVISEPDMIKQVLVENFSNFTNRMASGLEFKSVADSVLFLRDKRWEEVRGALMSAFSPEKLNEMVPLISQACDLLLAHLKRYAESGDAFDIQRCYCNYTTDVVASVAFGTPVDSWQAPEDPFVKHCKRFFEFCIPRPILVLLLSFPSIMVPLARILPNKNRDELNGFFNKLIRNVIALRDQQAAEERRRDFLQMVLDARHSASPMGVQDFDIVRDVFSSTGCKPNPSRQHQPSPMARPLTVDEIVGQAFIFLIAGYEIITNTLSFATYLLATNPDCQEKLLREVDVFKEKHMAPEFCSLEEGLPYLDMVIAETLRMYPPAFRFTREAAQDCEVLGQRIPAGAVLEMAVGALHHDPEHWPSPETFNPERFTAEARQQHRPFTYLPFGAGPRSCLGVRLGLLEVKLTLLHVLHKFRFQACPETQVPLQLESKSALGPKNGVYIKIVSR

[2] = target: T2, Cysteinyl leukotriene receptor 1 (Homo sapiens, UniProt Q9Y271); assay type: cell membranes, Membrane; settings: cho-k1; further: in other assays of this panel Not Active means under 50% inhibition at 10 µM
T2 sequence (Q9Y271 whole entry): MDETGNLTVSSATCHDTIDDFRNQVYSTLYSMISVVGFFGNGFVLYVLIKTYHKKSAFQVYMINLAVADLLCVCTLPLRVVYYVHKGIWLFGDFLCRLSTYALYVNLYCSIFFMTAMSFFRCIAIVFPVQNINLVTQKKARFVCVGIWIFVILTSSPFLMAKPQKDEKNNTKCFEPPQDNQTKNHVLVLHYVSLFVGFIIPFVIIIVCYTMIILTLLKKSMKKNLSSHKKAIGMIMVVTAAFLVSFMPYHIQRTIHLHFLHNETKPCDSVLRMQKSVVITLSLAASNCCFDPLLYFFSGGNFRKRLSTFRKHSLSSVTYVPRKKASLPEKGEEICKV

[3] = target: Delta-type opioid receptor (Homo sapiens, UniProt P41143); assay type: cell membranes, HEK293, Membrane; further: in other assays of this panel Not Active means under 50% inhibition at 10 µM
Adenosine receptor A2a = Adenosine receptor A2a (Homo sapiens, UniProt P29274); test: DRUGMATRIX: Adenosine A2A radioligand binding (ligand: […]); assay type: cell membranes, HEK293, Membrane; settings: Not Active = under 50% inhibition at 10 µM
Sequence of Adenosine receptor A2a (P29274 whole entry): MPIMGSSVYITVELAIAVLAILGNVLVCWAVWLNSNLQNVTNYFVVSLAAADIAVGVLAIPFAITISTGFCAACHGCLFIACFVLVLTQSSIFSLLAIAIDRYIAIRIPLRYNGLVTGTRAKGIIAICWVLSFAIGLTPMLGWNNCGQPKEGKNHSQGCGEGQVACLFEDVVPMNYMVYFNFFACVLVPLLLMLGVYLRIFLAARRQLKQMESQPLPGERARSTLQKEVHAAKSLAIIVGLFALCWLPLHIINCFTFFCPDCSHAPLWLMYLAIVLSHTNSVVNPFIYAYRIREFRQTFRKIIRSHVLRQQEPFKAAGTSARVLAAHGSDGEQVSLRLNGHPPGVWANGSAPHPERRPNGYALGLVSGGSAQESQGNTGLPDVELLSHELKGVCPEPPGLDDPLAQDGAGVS

Sequence of Delta-type opioid receptor (P41143 whole entry): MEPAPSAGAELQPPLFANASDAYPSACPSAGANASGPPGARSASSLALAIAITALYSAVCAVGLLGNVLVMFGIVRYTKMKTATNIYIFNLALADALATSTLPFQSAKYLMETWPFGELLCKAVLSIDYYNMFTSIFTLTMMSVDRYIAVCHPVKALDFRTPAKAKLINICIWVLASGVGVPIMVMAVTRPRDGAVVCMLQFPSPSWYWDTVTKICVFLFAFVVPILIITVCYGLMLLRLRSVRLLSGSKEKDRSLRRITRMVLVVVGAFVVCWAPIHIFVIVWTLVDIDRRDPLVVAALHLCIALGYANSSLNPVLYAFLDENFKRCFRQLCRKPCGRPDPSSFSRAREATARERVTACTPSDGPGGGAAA
Sequence of 5-hydroxytryptamine receptor 6 (P50406 whole entry): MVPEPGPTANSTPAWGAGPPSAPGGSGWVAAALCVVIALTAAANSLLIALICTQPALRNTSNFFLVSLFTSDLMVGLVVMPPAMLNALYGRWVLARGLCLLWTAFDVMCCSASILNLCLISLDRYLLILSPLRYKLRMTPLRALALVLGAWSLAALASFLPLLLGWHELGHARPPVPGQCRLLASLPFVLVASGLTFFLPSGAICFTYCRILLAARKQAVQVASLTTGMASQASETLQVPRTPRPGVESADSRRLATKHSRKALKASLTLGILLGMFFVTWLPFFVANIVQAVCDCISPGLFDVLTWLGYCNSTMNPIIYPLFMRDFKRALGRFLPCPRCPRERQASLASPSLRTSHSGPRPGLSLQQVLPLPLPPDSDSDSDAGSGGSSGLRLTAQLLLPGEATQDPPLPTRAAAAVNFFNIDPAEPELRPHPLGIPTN

Molecule	IC50 ([1]; hela)	IC50 (Thromboxane-A synthase; platelet)	IC50 [2]	IC50 ([3]; hek293)	IC50 (Adenosine receptor A2a; hek293)	also measured
CCCCC(=O)N(Cc1ccc(-c2ccccc2-c2nnn[nH]2)cc1)[C@H](C(=O)O)C(C)C	Not Active	Not Active	Not Active	Not Active	Not Active	
O=C(O)COc1ccc(C(=O)c2cccs2)c(Cl)c1Cl	Not Active	Not Active	Not Active	Not Active	Not Active	
CN1[C@@H]2CC[C@H]1C[C@@H](OC(c1ccccc1)c1ccccc1)C2 [BENZTROPINE]		Not Active	Not Active	Not Active	Not Active	IC50 ([1]; read-out: IC50): 2790 nM; Ki ([1]; read-out: Ki): 1290 nM
C[C@@](Cc1ccc(O)c(O)c1)(NN)C(=O)O.O [CARBIDOPA]	Not Active	Not Active	Not Active	Not Active	Not Active	
CN1CCN(C2=Nc3cc(Cl)ccc3Nc3ccccc32)CC1 [CLOZAPINE]		Not Active	Not Active	Not Active	Not Active	
CC(C)NC[C@@H](O)COc1cccc2ccccc12 [DEXPROPRANOLOL]	Not Active	Not Active	Not Active	Not Active	Not Active	
CC(C)NC[C@H](O)COc1cccc2ccccc12 [LEVOPROPRANOLOL]		Not Active	Not Active	Not Active	Not Active	IC50 ([1]; read-out: IC50): 998 nM; Ki ([1]; read-out: Ki): 463 nM
O=C(O)CCCCC1CCSS1 (stereo not drawn) [LIPOIC ACID, ALPHA]	Not Active	Not Active	Not Active	Not Active	Not Active	
CN(C)C(=O)C(CCN1CCC(O)(c2ccc(Cl)cc2)CC1)(c1ccccc1)c1ccccc1 [LOPERAMIDE]	Not Active	Not Active	Not Active		Not Active	
Clc1ccc(COC(Cn2ccnc2)c2ccc(Cl)cc2Cl)c(Cl)c1 (stereo not given) [MICONAZOLE]			Not Active			IC50 ([1]; read-out: IC50): 10900 nM; Ki ([1]; read-out: Ki): 5060 nM; IC50 (Thromboxane-A synthase; read-out: IC50): 263 nM; IC50 ([3]; read-out: IC50): 3390 nM; Ki ([3]; read-out: Ki): 1190 nM
Oc1ccc2c3c1O[C@H]1[C@@H](O)CC[C@@]4(O)[C@@H](C2)N(CC2CCC2)CC[C@]314 [NALBUPHINE]	Not Active	Not Active	Not Active		Not Active	
C[C@]12C=CC(=O)C=C1CC[C@@H]1[C@@H]2C(=O)C[C@@]2(C)[C@H]1CC[C@]2(O)C(=O)CO [PREDNISONE]	Not Active	Not Active	Not Active	Not Active	Not Active	
OCCOCCN1CCN(C2=Nc3ccccc3Sc3ccccc32)CC1 [QUETIAPINE]	Not Active	Not Active	Not Active	Not Active	Not Active	
COC(=O)[C@H]1[C@H]2C[C@@H]3c4[nH]c5cc(OC)ccc5c4CCN3C[C@H]2C[C@@H](OC(=O)c2cc(OC)c(OC)c(OC)c2)[C@@H]1OC [RESERPINE]	Not Active	Not Active	Not Active	Not Active	Not Active	
O=C(O)c1ccccc1O [SALICYLIC ACID]	Not Active	Not Active	Not Active	Not Active	Not Active	
C[S+]([O-])c1ccc(-c2nc(-c3ccncc3)c(-c3ccc(F)cc3)[nH]2)cc1 (stereo not given) [SB-203580]	Not Active		Not Active	Not Active		IC50 (Adenosine receptor A2a; read-out: IC50): 6070 nM; Ki (Adenosine receptor A2a; read-out: Ki): 3410 nM
CC1CCC(NC(=O)N(CCCl)N=O)CC1 (stereo not given) [SEMUSTINE]	Not Active	Not Active	Not Active	Not Active	Not Active	
O=C1C[C@@H]2OCC=C3CN4CC[C@]56c7ccccc7N1[C@H]5[C@H]2[C@H]3C[C@H]46 [STRYCHNINE]	Not Active	Not Active	Not Active	Not Active	Not Active	
C[N+](C)(C)CCOC(=O)CCC(=O)OCC[N+](C)(C)C.[Cl-].[Cl-] [SUCCINYLCHOLINE CHLORIDE]	Not Active	Not Active	Not Active	Not Active	Not Active	
Nc1ccc(S(=O)(=O)NC(=O)c2ccccc2)cc1 [SULFABENZAMIDE]	Not Active	Not Active	Not Active	Not Active	Not Active	
CCCCCCCCNC(C)C(O)c1ccc(SC(C)C)cc1 (stereo not given) [SULOCTIDIL]	Not Active	Not Active	Not Active	Not Active	Not Active	
O=c1[nH]c(=O)n(C2CCCO2)cc1F (stereo not given) [TEGAFUR]	Not Active	Not Active	Not Active	Not Active	Not Active	
CC(=N)S [THIOACETAMIDE]	Not Active	Not Active	Not Active	Not Active	Not Active	
Cc1ccc(C(=O)c2ccc(CC(=O)O)n2C)cc1 [TOLMETIN]	Not Active	Not Active	Not Active	Not Active	Not Active	
CC(=O)OCC(COC(C)=O)OC(C)=O [TRIACETIN]	Not Active	Not Active	Not Active	Not Active	Not Active	
CN1CCN(CCCN2c3ccccc3Sc3ccc(C(F)(F)F)cc32)CC1 [TRIFLUOPERAZINE]	Not Active	Not Active	Not Active	Not Active	Not Active	
TRANSPLATIN	Not Active	Not Active	Not Active	Not Active	Not Active	Ki ([1]; hela): Not Active; Ki (Thromboxane-A synthase; platelet): Not Active; Ki [2]: Not Active; Ki ([3]; hek293): Not Active; Ki (Adenosine receptor A2a; hek293): Not Active
ZIRCONIUM(IV) CHLORIDE	Not Active	Not Active	Not Active	Not Active	Not Active	Ki ([1]; hela): Not Active; Ki (Thromboxane-A synthase; platelet): Not Active; Ki [2]: Not Active; Ki ([3]; hek293): Not Active; Ki (Adenosine receptor A2a; hek293): Not Active
